Calls of active or inactive are those of the source.
Experiments:
[1] = biological target: T1, Tyrosyl-DNA phosphodiesterase 2 (Homo sapiens, UniProt O95551); assay: human TDP2 enzyme inhibitors, dose response, biochemical, epi absorbance, IC50 (AID 743297)
T1 sequence (O95551 whole entry): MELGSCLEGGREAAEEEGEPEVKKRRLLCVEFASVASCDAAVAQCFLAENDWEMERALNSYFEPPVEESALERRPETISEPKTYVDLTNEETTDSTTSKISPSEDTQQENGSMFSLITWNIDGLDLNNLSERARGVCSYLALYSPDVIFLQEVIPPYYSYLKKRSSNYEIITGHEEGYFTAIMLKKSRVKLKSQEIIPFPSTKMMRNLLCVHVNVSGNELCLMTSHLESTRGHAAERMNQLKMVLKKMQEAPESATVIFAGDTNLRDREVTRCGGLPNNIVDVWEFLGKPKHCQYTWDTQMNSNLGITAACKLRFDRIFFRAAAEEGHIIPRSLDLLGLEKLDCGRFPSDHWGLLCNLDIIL

[2] = biological target: Tyrosine-protein kinase JAK2 (Homo sapiens, UniProt O60674); assay type: functional;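 further: JAK2 tested as one member of a kinase panel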
Sequence of Tyrosine-protein kinase JAK2 (O60674 whole entry): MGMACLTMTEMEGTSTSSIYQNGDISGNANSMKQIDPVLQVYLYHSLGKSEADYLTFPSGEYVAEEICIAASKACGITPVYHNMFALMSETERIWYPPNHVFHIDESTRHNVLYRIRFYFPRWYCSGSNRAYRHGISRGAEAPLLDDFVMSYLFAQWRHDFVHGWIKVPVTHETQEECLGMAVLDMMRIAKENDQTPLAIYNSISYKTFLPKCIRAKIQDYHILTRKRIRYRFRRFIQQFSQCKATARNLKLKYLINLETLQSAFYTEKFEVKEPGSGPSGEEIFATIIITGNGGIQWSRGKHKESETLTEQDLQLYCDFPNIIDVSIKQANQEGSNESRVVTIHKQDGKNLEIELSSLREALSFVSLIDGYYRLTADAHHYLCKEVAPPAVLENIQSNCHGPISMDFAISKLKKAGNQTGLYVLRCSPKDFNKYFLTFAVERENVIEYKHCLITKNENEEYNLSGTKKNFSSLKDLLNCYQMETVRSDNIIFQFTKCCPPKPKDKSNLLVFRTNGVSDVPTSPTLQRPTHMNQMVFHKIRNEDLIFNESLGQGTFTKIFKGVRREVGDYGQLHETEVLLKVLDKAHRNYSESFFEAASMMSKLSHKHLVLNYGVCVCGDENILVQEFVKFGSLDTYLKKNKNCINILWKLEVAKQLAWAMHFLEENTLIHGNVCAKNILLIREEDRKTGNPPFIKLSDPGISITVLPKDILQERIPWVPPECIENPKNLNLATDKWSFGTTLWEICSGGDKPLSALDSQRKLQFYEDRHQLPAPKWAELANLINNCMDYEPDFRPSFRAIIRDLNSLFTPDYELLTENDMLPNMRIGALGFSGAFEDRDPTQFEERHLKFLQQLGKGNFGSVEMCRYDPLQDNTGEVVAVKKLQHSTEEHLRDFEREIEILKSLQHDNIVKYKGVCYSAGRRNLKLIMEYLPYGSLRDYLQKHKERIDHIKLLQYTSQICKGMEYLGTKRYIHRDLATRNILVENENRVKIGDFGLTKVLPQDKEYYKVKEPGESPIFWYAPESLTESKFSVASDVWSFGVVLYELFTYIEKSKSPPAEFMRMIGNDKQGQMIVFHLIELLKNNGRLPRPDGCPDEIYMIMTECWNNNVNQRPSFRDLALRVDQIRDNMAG

[3] = biological target: 5'-AMP-activated protein kinase catalytic subunit alpha-1 (Homo sapiens, UniProt Q13131); assay type: functional
[4] = biological target: Protein kinase C delta type (Homo sapiens, UniProt Q05655); assay type: functional
[5] = biological target: ALK tyrosine kinase receptor (Homo sapiens, UniProt Q9UM73); assay type: functional;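 further: ALK tested as one member of a kinase panel screen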
[6] = biological target: Serine/threonine-protein kinase PLK4 (Homo sapiens, UniProt O00444); assay type: functional;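 further: PLK4 measured as one member of a kinome-wide kinase profiling panel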
[7] = biological target: Serine/threonine-protein kinase D2 (Homo sapiens, UniProt Q9BZL6); assay type: functional;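 further: measured against PRKD2 as one member of a kinome-wide kinase profiling panel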
[8] = biological target: Ribosomal protein S6 kinase beta-1 (Homo sapiens, UniProt P23443); assay type: functional;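 further: measured as one member of a kinome-wide profiling panel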
[9] = biological target: Calcium/calmodulin-dependent protein kinase type II subunit gamma (Homo sapiens, UniProt Q13555); assay type: functional
[10] = biological target: Testis-specific serine/threonine-protein kinase 2 (Homo sapiens, UniProt Q96PF2); assay type: functional;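 further: part of the Navigating the Kinome panel, target entry STK22B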
[11] = biological target: Serine/threonine-protein kinase Chk2 (Homo sapiens, UniProt O96017); assay type: functional;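 further: CHEK2 entry within a kinome-wide screening panel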
Activin receptor type-1 = Activin receptor type-1 (Homo sapiens, UniProt Q04771); assay: Navigating the Kinome. Panel member name: ACVR1; assay type: functional
[12] = biological target: Cyclin-dependent kinase 2 (Homo sapiens, UniProt P24941); assay type: functional;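 further: CDK2 measured as one member of a broad kinome profiling panel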
[13] = biological target: MAP kinase-activated protein kinase 5 (Homo sapiens, UniProt Q8IW41); assay type: functional;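 further: measured as one member of a kinome panel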
Sequence of MAP kinase-activated protein kinase 5 (Q8IW41 whole entry): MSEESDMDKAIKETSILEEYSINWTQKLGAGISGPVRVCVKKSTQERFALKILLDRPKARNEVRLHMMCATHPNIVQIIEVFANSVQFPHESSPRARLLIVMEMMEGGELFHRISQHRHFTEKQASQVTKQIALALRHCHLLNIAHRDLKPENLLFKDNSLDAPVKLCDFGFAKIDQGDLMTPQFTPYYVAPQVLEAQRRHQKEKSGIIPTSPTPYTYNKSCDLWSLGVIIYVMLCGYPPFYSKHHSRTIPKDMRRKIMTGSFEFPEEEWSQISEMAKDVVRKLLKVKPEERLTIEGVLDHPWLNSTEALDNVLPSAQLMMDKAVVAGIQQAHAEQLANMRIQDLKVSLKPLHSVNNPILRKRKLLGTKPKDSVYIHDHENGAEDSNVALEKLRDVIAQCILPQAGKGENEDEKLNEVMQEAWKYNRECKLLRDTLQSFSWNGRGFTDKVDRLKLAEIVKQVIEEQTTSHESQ

[14] = biological target: Casein kinase II subunit alpha (Homo sapiens, UniProt P68400); assay type: functional
[15] = biological target: Casein kinase I isoform alpha (Homo sapiens, UniProt P48729); assay type: functional
[16] = biological target: Tyrosine-protein kinase JAK3 (Homo sapiens, UniProt P52333); assay type: functional
[17] = biological target: Serine/threonine-protein kinase N2 (Homo sapiens, UniProt Q16513); assay type: functional
[18] = biological target: Protein kinase C gamma type (Homo sapiens, UniProt P05129); assay type: functional
[19] = biological target: Proto-oncogene tyrosine-protein kinase Src (Homo sapiens, UniProt P12931); assay type: functional;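 further: SRC entry within a kinome-wide kinase profiling panel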
Sequence of Proto-oncogene tyrosine-protein kinase Src (P12931 2-536 limits assumed): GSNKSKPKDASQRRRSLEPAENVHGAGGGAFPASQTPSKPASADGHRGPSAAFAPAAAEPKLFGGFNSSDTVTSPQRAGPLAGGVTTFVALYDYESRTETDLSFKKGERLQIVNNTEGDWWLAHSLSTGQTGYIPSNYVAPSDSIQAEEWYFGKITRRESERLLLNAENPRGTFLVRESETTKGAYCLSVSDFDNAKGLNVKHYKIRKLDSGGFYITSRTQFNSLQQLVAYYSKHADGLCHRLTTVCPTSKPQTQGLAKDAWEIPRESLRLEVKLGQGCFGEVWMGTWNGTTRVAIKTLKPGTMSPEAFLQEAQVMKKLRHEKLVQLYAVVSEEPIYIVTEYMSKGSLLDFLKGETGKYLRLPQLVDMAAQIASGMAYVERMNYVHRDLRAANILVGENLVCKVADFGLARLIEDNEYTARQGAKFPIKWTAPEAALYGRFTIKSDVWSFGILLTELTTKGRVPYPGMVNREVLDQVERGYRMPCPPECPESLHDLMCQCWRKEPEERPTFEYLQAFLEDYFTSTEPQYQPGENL

[20] = biological target: Receptor tyrosine-protein kinase erbB-2 (Homo sapiens, UniProt P04626); assay: Navigating the Kinome. Panel member name: ERBB2; assay type: functional
[21] = biological target: Interleukin-1 receptor-associated kinase 1 (Homo sapiens, UniProt P51617); assay type: functional;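 further: IRAK1 tested as one member of a kinome panel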
[22] = biological target: Interleukin-1 receptor-associated kinase 4 (Homo sapiens, UniProt Q9NWZ3); assay type: functional
Sequence of Interleukin-1 receptor-associated kinase 4 (Q9NWZ3 whole entry): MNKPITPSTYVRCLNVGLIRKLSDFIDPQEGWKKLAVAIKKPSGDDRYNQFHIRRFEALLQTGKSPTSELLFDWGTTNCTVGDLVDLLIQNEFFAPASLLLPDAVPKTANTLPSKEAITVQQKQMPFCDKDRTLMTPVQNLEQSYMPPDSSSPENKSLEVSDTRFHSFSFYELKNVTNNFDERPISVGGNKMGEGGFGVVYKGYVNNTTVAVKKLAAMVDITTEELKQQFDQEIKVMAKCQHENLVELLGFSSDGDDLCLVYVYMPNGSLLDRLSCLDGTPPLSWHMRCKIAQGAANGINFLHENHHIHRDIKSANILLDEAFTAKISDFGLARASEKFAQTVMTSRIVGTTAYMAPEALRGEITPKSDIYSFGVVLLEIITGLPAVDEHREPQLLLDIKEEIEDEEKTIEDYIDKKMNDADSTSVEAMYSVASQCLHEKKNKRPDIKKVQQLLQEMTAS

[23] = biological target: RAC-alpha serine/threonine-protein kinase (Homo sapiens, UniProt P31749); assay type: functional;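 further: AKT1 affinity measured as one member of a kinome-wide kinase profiling panel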
[24] = biological target: Vascular endothelial growth factor receptor 3 (Homo sapiens, UniProt P35916); assay type: functional;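 further: value from a kinome-wide profiling panel, with FLT4 as the panel member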
[25] = biological target: Tyrosine-protein kinase Fer (Homo sapiens, UniProt P16591); assay type: functional;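 further: FER tested as one member of a kinome panel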
[26] = biological target: Tyrosine-protein kinase Fyn (Homo sapiens, UniProt P06241); assay type: functional
Sequence of Tyrosine-protein kinase Fyn (P06241 whole entry): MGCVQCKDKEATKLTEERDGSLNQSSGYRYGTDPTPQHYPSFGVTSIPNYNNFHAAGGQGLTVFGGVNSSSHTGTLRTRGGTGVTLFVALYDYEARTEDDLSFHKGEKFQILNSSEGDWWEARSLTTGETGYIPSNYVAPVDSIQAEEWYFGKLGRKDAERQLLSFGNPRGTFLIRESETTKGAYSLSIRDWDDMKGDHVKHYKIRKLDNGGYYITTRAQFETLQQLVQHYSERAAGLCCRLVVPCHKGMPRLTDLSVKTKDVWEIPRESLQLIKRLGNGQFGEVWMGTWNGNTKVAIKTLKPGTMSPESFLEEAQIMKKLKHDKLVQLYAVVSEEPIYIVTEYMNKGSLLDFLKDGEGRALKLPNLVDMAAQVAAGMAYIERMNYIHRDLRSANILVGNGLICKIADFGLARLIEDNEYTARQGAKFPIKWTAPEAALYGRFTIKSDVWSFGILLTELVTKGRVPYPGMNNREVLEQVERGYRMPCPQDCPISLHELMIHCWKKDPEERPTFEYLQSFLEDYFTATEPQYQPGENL

[27] = biological target: Homeodomain-interacting protein kinase 4 (Homo sapiens, UniProt Q8NE63); assay type: functional
Sequence of Homeodomain-interacting protein kinase 4 (Q8NE63 whole entry): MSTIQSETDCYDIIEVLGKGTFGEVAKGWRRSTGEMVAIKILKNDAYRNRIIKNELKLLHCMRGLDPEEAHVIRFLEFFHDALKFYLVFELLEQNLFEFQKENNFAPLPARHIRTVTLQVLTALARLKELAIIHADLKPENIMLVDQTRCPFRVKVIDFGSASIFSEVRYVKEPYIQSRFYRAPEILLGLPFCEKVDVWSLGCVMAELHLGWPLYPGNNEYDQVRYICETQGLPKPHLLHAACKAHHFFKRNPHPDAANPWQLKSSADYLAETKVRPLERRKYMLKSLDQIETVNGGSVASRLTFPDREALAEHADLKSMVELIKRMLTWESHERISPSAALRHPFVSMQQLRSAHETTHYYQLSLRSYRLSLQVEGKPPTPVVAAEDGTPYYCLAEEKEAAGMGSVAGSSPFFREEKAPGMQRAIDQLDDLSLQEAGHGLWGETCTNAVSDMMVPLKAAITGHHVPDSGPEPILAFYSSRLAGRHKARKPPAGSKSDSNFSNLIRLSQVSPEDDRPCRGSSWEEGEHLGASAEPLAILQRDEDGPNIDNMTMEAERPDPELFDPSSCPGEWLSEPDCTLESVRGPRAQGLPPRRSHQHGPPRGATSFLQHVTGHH

[28] = biological target: Serine/threonine-protein kinase pim-2 (Homo sapiens, UniProt Q9P1W9); assay type: functional;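 further: value comes from a broad kinase panel profiling study in which PIM2 was one of the panel members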
Sequence of Serine/threonine-protein kinase pim-2 (Q9P1W9 whole entry): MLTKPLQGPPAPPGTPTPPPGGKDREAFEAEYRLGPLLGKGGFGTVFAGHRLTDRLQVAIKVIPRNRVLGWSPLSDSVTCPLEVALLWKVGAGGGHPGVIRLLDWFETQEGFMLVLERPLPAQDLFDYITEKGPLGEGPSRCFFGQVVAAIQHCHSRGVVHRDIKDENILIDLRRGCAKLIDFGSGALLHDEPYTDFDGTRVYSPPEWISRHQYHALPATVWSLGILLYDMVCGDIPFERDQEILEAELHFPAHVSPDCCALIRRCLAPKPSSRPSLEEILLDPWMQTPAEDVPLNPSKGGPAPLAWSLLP

[29] = biological target: Cyclin-dependent kinase 7 (Homo sapiens, UniProt P50613); assay type: functional;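 further: value comes from a kinome-wide kinase profiling panel in which CDK7 is one member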
[30] = biological target: Serine/threonine-protein kinase PLK1 (Homo sapiens, UniProt P53350); assay type: functional;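 further: PLK1 measured as one member of a kinome-wide profiling panel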
[31] = biological target: Glycogen synthase kinase-3 beta (Homo sapiens, UniProt P49841); assay type: functional;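 further: value comes from a broad kinome profiling panel, with GSK3B as the panel member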
[32] = biological target: Cyclin-dependent kinase 9 (Homo sapiens, UniProt P50750); assay type: functional;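 further: value from the CDK9 entry of a kinome-spanning kinase panel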
[33] = biological target: Receptor tyrosine-protein kinase erbB-4 (Homo sapiens, UniProt Q15303); assay type: functional;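 further: ERBB4 member of a kinome-wide kinase profiling panel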
[34] = biological target: cAMP-dependent protein kinase catalytic subunit alpha (Homo sapiens, UniProt P17612); assay type: functional
[35] = biological target: Dual specificity protein kinase CLK4 (Homo sapiens, UniProt Q9HAZ1); assay type: functional
[36] = biological target: Lymphokine-activated killer T-cell-originated protein kinase (Homo sapiens, UniProt Q96KB5); assay type: functional;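 further: value comes from a kinase panel screen in which TOPK was one of the panel members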
[37] = biological target: Serine/threonine-protein kinase BRSK1 (Homo sapiens, UniProt Q8TDC3); assay type: functional;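 further: measured within a kinome-wide kinase panel, with the target listed as KIAA1811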
Sequence of Serine/threonine-protein kinase BRSK1 (Q8TDC3 whole entry): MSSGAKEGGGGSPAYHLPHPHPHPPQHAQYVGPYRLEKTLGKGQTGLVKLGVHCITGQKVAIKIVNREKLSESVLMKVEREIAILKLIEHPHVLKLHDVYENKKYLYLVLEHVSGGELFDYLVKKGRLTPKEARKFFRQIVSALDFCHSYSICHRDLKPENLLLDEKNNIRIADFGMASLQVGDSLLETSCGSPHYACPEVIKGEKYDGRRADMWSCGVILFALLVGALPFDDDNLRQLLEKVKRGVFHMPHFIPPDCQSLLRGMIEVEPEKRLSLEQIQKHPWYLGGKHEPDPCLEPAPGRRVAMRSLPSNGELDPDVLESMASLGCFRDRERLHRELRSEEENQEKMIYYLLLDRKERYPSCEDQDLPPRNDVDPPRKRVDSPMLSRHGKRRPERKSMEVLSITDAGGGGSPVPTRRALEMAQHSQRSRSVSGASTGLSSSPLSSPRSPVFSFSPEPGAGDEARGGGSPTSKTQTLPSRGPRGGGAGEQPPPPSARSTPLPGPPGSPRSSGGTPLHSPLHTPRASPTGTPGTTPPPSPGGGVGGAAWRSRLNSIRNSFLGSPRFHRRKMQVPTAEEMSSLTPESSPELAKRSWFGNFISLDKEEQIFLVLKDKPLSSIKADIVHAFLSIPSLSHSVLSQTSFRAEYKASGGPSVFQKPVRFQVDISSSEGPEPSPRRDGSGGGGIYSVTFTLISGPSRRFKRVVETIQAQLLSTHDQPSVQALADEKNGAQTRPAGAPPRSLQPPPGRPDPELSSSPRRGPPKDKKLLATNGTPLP

[38] = biological target: Inhibitor of nuclear factor kappa-B kinase subunit epsilon (Homo sapiens, UniProt Q14164); assay: Navigating the Kinome. Panel member name: IKBKE; assay type: functional
[39] = biological target: Calcium/calmodulin-dependent protein kinase type II subunit alpha (Homo sapiens, UniProt Q9UQM7); assay: Navigating the Kinome. Panel member name: CAMK2A; assay type: functional
[40] = biological target: Tyrosine-protein kinase FRK (Homo sapiens, UniProt P42685); assay type: functional;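 further: FRK tested as one member of a kinome panel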

## Cc1ccc(/C=C2/C(=O)c3ccc(C(=O)O)cc3C2=O)o1
[1]
  IC50: > 128 µM (inactive)

## Clc1cc(NC2CCCCC2)nc(-c2c[nH]c3ncccc23)n1
[2]
  Ki: > 2.51 µM (inactive)
[3]
  Ki: > 2 µM (inactive)
[4]
  Ki: 0.316 µM (active)
[5]
  Ki: > 3.98 µM (inactive)
[6]
  Ki: > 3.98 µM (inactive)
[7]
  Ki: 1.58 µM (active)
[8]
  Ki: 0.501 µM (active)
[9]
  Ki: 1.58 µM (active)
[10]
  Ki: > 1.58 µM (inactive)
[11]
  Ki: 0.316 µM (active)
Activin receptor type-1
  Ki: > 3.98 µM (inactive)
[12]
  Ki: > 1.58 µM (inactive)
[13]
  Ki: > 1.58 µM (inactive)
[14]
  Ki: 0.251 µM (active)
[15]
  Ki: > 5.01 µM (inactive)
[16]
  Ki: > 2 µM (inactive)
[17]
  Ki: 0.126 µM (active)
[18]
  Ki: 0.501 µM (active)
[19]
  Ki: > 2 µM (inactive)
[20]
  Ki: > 1.58 µM (inactive)
[21]
  Ki: 2.51 µM (active)
[22]
  Ki: 1.26 µM (active)
[23]
  Ki: 2 µM (active)
[24]
  Ki: 1 µM (active)
[25]
  Ki: 0.398 µM (active)
[26]
  Ki: > 0.794 µM (inactive)
[27]
  Ki: 1.26 µM (active)
[28]
  Ki: > 2 µM (inactive)
[29]
  Ki: > 6.31 µM (inactive)
[30]
  Ki: 0.501 µM (active)
[31]
  Ki: 1.26 µM (active)
[32]
  Ki: > 3.98 µM (inactive)
[33]
  Ki: > 3.98 µM (inactive)
[34]
  Ki: 0.398 µM (active)
[35]
  Ki: 0.158 µM (active)
[36]
  Ki: 6.31 µM (active)
[37]
  Ki: 2 µM (active)
[38]
  Ki: > 3.16 µM (inactive)
[39]
  Ki: > 3.16 µM (inactive)
[40]
  Ki: > 2.51 µM (inactive)

Source: ChEMBL document CHEMBL1201862, “PubChem BioAssay data set” (2004)
